Data: patent US5798375A, “Treatment of arteriosclerosis and xanthoma” (Sankyo Company, Limited, priority 1995, dated 1998)

Key:
Assay type in all cases: in vivo
[1] = tested on: Male Fl b hamsters; experiment: Example 4: regression of preformed atherosclerosis in hamsters (Oil Red O stained area)
Method: Synergism of HMG CoA reductase inhibitors and thiazolidinedione insulin sensitizers was examined by another regression model, i.e. the regression of preformed atherosclerosis in hamsters. Male Fl b hamsters (weight about 130 g,) were given a diet containing 0.05% cholesterol for 13 weeks. They were grouped randomly (2-7 animals per group), and then the test samples were administered for 4 weeks while the hamsters were given a normolipidaemic diet. Pravastatin and fluvastatin were mixed with drinking water at the dose of 3 mg/kg and 1.5 mg/kg, respectively, while troglitazone was mixed with the diet at the dose of 30 mg/kg or 100 mg/kg.
In the case of the combination groups, the dosage was 3 mg/kg+30 mg/kg or 3 mg/kg+100 mg/kg for the pravastatin+troglitazone group, and 1.5 mg/kg+30 mg/kg for the fluvastatin+troglitazone group.
Namely, the aortic arch was stained with ORO to prepare en face specimens. The percentage area which was positive to the ORO stain over the whole area was measured to represent the degree of aortic lesion.

[2] = tested on: WHHL rabbits; experiment: Example 1: stenosis of the coronary arteries in WHHL rabbits; conditions: week 32
Method: (§1) WHHL rabbits [2-3 months of age, the Watanabe heritable hyperlipidemic rabbit described in Biochimica et Biophysica Acta, 960, 294-302 (1988)] were randomly assigned to a control group (7 animals, group A), a group receiving pravastatin alone (5 animals, Group B), a group receiving troglitazone alone (7 animals, Group C), and a group receiving a combination of both active substances (6 animals, Group D). Pravastatin was administered orally by gavage at a dose of 50 mg/kg/day once-daily and troglitazone was given in the diet, containing 100 mg/kg of the substance for 32 weeks. The ingested amount was limited to a daily 120 g per rabbit. Blood was withdrawn from the animal immediately before starting the study and 4, 8, 12, 16, 20, 24, 28 and 32 weeks after starting the study and the total cholesterol levels (mg/dl) were determined for each blood sample. The levels are reported as a percentage (%) of the levels measured immediately before starting the study. The animals were sacrificed and necropsied at week 32 to examine (a) the percent lesion area (%) in the total, thoracic or abdominal portion of the aorta; (b) the stenosis (%) of the coronary arteries and (c) the incidence (%) of xanthoma in the digital joints.
(§2) The values actually measured are represented as an average value±standard error in those Tables.

[3] = tested on: WHHL rabbits; experiment: Example 1: incidence of xanthoma in the digital joints of WHHL rabbits
Method: as §1, §2

Compound: CC[C@H](C)C(=O)O[C@H]1C[C@H](O)C=C2C=C[C@H](C)[C@H](CC[C@@H](O)C[C@@H](O)CC(=O)O)[C@H]21 [Pravastatin, sodium 1,2,6,7,8,8a-hexahydro-6,8-tetrahydroxy-2-methyl-1-naphthaleneheptanoate]
- Stained Area, % of Control ([1]; 3 mg/kg): 106%
- Stained Area ORO ([1]; aortic arch, 3 mg/kg in drinking water, 4 weeks, control 1.82 ± 0.44): 1.93 ± 0.33%
- regression of aortic lesions ([1]; pravastatin 3 mg/kg, fluvastatin 1.5 mg/kg, troglitazone 30 mg/kg alone, combinations): no regression of aortic lesions
- Coronary stenosis, RCA (right coronary artery) ([2]; control 13): 18%
- Coronary stenosis, LAD (left anterior descending artery) ([2]; control 24): 16%
- Coronary stenosis, LSP (left septal artery) ([2]; control 40): 9%
- Coronary stenosis, LCX (left circumflex artery) ([2]; control 47): 34%
- Coronary stenosis, MLC (main left coronary artery) ([2]; control 61): 71%
- Coronary stenosis, MRC (main right coronary artery) ([2]; control 79): 81%
- Incidence of xanthoma, Foreleg ([3]; week 32, control 100 (14/14)): 80%
- Incidence of xanthoma, Hind leg ([3]; week 32, control 100 (14/14)): 80%
- Incidence of xanthoma, Total ([3]; week 32, control 100 (28/28)): 80%
